Molecules are shown by their SMILES.

These results are taken from US12559513B2, “Aromatic glycoside and method for producing the glycoside” (CAROTENOID-PRODUCTION TECHNOLOGY CORPORATION (CaroProTech), priority 2022, dated 2026).

The test system of one experiment is rat brain homogenate. The experiment in a line: Peroxidation-inhibiting test of rat brain lipids (rat brain homogenate, TBA method). It is filed as biochemical. Particulars: for IC50: 1 hour at 37° C., malondialdehyde by A532, read-out: IC50 (50% inhibition concentration of rat brain lipid-peroxidation). The method, then: The lipid peroxidation-inhibiting assay with rat brain homogenate is an experimental system for evaluating damages of biological system caused by the generation of ROS (Reactive Oxygen Species). It is because the rat brain is an organ that is easily oxidized by ROS. Using this system, we evaluated antioxidative activity of compounds 1-5.
Using rat brain homogenate, we examined lipid peroxidation-inhibiting activities of the test compounds. It was performed by incubating rat brain homogenate to proceed with lipid peroxidation reactions, with each compound and with no compound (as the control), by measuring the amounts of consequently generated malondialdehyde by absorbance at 532 nm in the TBA method, and by comparing the amounts of the malondialdehyde products between them.
We preincubated IWAKI disposable test tube ([…]×100 mm) that contained 0.6 mL of 100 mM phosphate buffer (pH 7.4), 0.05 mL of each test sample-including solution, 0.1 mL of 1 mM ascorbic acid, and 0.05 mL of distilled water at 37° C. for 5 min. And 0.2 mL of 2.5% (w/v) rat brain homogenate was added to the test tube, and incubated for 1 hour at 37° C. with shaking (150 rpm). Then, 1 mL of 0.2 N HCl solution including 20% (W/V) trichloroacetic acid and 0.5% (W/V) 2-thiobarbituric acid was added to the above test tube to stop the reaction. Next, this test tube containing each reaction solution was boiled for 30 min at 100° C. to produce color. After chilled on ice, each solution from the test tube was centrifuged with 3,000 rpm for 10 min, and the absorbance of each supernatant was measured at 532 nm (A532).
The lipid peroxidation-inhibiting ratio (%) of each extracted solution (containing each flavonoid glycoside as a test compound (T)) was calculated using the following Formula 1. (1−[T−B]/[C−B])′100. Formula 1
T (test), C (control), and B (blank) are A532 of a test compound with the rat brain homogenate, the control (no compound (instead ethanol) with the homogenate), and the blank control (no compound (instead ethanol) without the homogenate (instead phosphate buffer)), respectively. The lipid peroxidation-inhibiting activity was determined as the IC50 value, representing the concentration at which 50% inhibition was observed.
(Peroxidation-Inhibiting Test of Rat Brain Lipids)

For experiment [1], the system named is mouse preadipocyte 3T3-L1. Briefly: Differentiation-inducing test of mouse preadipocyte 3T3-L1 (Oil Red O staining). It is filed as cell-based. Particulars: 3T3-L1 cells, differentiation cocktail with insulin for 6 days. The text has this: Mouse preadipocyte 3T3-L1 is used for screening of activities for lipid metabolism improvement and anti-diabetes, since 3T3-L1 is induced to the differentiation of small adipocyte under proper conditions. This differentiated fat cell produces lipid bodies that can be stained with Oil Red O. PPAR (Peroxisome Proliferator-Activated Receptor) belongs to nuclear receptor superfamily. PPARγ is importantly related to differentiation of fat cells, e.g., activated PPARγ promotes differentiation from preadipocyte to adipocyte. Furthermore, PPARγ promotes apoptosis of large fat cells. Compounds activating PPARγ (PPARγ agonists) improve insulin resistance by inducing apoptosis of large fat cells that are willing to produce TNF-α and free fatty acids, reluctant to import sugars, and induce insulin resistance. PPARγ agonists further reduce blood glucose levels, and exert anti-diabetes activity by inducing differentiation to small fat cells that are reluctant to produce TNF-α and free fatty acids, willing to import glucose in blood, and improve glucose metabolism. Currently, PPARγ agonists such as rosiglitazone (thiazolidine) are used clinically to treat patients with type-2 diabetes mellitus.
In the present EXAMPLE, we carried out to examine whether aromatic compound glycosides can promote differentiation to small fat cells, using mouse 3T3-L1 preadipocyte.
Thus, we examined the PPARγ agonistic activities of compounds 3, 4, 20, and 21, which were selected as the representatives.
The 3T3-L1 cell line was purchased from Japanese Collection of Research Bioresources Cell Bank (JCRB, Osaka, Japan). The 3T3-L1 cells were cultured in DMEM with 10% fetal calf serum (FCS, Sigma Aldrich, St Lous, USA) and antibiotics ([…]). The cells were seeded in collagen coated 12-well plates at 10,000 cells/well (1 mL) and grown to confluence for 2 days. The differentiation procedure was initiated 2 days after cells reached confluence by changing the medium to the differentiation cocktail ([…] in DMEM containing 10% FBS and antibiotics) with or without various concentrations of test compounds (positive control, thiazolidine; four aromatic compound glycosite) dissolved in DMSO (10^3-10^4 times dilutions of the stocks were used). Thereafter, the cells were grown in the differentiation cocktail for 6 days.
Then, Oil Red O (ORO) staining was performed to evaluate the ratio of the differentiated 3T3-L1 cells. […] ORO was then extracted from fixed cells with 100% isopropanol (1 mL), and OD500 values of isopropanol solution, which reflect the ORO amount imported into the cells (=the lipid (body) amount of the differentiated cells), were measured by 96-well microplate reader. […]

In the case of `CC1OC(Oc2cc(O)c3c(=O)c(O[C@@H]4OC(CO)[C@@H](O)C(O)C4O[C@@H]4OC(CO)[C@@H](O)C(O)C4O)c(-c4ccc(O)c(OC(=O)/C=C/c5ccc(O)c(O)c5)c4)oc3c2)C(O)C(O)C1O` (stereo partly shown) [Compound 1], the IC50 with rat brain homogenate was 1700 nM. Same read-out and setting: the value for `CC1OC(Oc2cc(O)c3c(=O)c(O[C@@H]4OC(CO)[C@@H](O)C(O)C4O[C@@H]4OC(CO)[C@@H](O)C(O)C4O)c(-c4ccc(OC(=O)/C=C/c5ccc(O)c(O)c5)cc4)oc3c2)C(O)C(O)C1O` (stereo partly shown) [Compound 2] was 15000 nM.

On to `CC1OC(Oc2cc(O)c3c(=O)c(OC4OC(C)C(O)C(O)C4O[C@@H]4OC(CO)[C@@H](O)[C@H](O)C4O)c(-c4ccc(O)c(OC(=O)/C=C/c5ccc(O)c(O)c5)c4)oc3c2)C(O)C(O)C1O` (stereo partly shown) [Compound 3], for which the IC50 with rat brain homogenate was determined as 1400 nM. In experiment [1], the “activity for differentiation induction to small fat cells (adipose)” value (“activity for differentiation induction” for short) was “strong activity for differentiation induction to small fat cells”. For `O=C(/C=C/c1ccc(O)c(O)c1)Oc1cc(-c2oc3cc(O)cc(O)c3c(=O)c2O[C@@H]2OC(CO)[C@@H](O)[C@H](O)C2O[C@@H]2OC(CO)[C@@H](O)[C@H](O)C2O)ccc1O` (stereo partly shown) [Compound 4] the same measures were 1100 nM and “strong activity for differentiation induction to small fat cells”. With `CC1OC(Oc2c(-c3ccc(O)c(OC(=O)/C=C/c4ccc(O)c(O)c4)c3)oc3cc(O[C@@H]4OC(CO)[C@@H](O)[C@H](O)C4O)cc(O)c3c2=O)C(O[C@@H]2OC(CO)[C@@H](O)[C@H](O)C2O)C(O)C1O` (stereo partly shown) [Compound 5], the IC50 in the experiment on rat brain homogenate is 1500 nM. Regarding `O=C(/C=C/c1ccc(O)c(O)c1)Oc1cc(-c2oc3cc(O[C@@H]4OC(C(=O)O)[C@@H](O)C(O)C4O)cc(O)c3c(=O)c2O[C@@H]2OC(CO)[C@@H](O)C(O)C2O[C@@H]2OC(CO)[C@@H](O)C(O)C2O)ccc1O` (stereo partly shown) [Compound 20], in the experiment on rat brain homogenate, the “lipid peroxidation-inhibiting activity (in words)” value is listed as “possess peroxidation-inhibiting activity” and the IC50 worked out at 1500 nM. Further, the “activity for differentiation induction” value in experiment [1] is listed as “strong activity for differentiation induction to small fat cells”.

In the case of `O=C(/C=C/c1ccc(O)c(O)c1)Oc1ccc(-c2oc3cc(O[C@@H]4OC(C(=O)O)[C@@H](O)C(O)C4O)cc(O)c3c(=O)c2O[C@@H]2OC(CO)[C@@H](O)C(O)C2O[C@@H]2OC(CO)[C@@H](O)C(O)C2O)cc1` (stereo partly shown) [Compound 21], in the experiment on rat brain homogenate, the “lipid peroxidation-inhibiting activity (in words)” value is “possess peroxidation-inhibiting activity” and the IC50 was 23000 nM. Moreover, in experiment [1], the “activity for differentiation induction” value is recorded as “strong activity for differentiation induction to small fat cells”.
